Laboratory results as given in patent publication US20090291977A1, “Chromane Derivatives Useful As Acid Pump Antagonists” (priority 2004, published 2009).

What follows are compounds tested against T1, Porcine gastric H+/K+-ATPase (Sus scrofa, UniProt P19156) (assay: Ion-leaky porcine gastric H+/K+-ATPase inhibition). Conditions: ion-leaky vesicles, 5 mM KCl, pH 6.4, 37° C., 30 minutes.
T1 construct: The gastric vesicles were collected from interface on 0.25 M sucrose layer containing 7% Ficoll; from tissue; host or cells: mucous membrane of fresh porcine stomachs (gastric vesicles)
Type: biochemical
Description: The porcine gastric vesicles for Porcine gastric H^+/K^+-ATPase inhibition assays were prepared from mucous membrane in fresh porcine stomachs by homogenization with a tight-fitted polytetrafluoroethylene (Teflone®) homogenizer in 0.25 M sucrose at 4° C. The crude pellet was removed with centrifugation at 20,000 g for 30 min. Then supernatant was centrifuged at 100,000 g for 30 min. The resulting pellet was re-suspended in 0.25 M sucrose, and then subjected to density gradient centrifugation at 132,000 g for 90 min. The gastric vesicles were collected from interface on 0.25 M sucrose layer containing 7% Ficoll™ PM400(Amersham Biosciences). This procedure was performed in a cold room.
Ion-leaky porcine gastric H^+/K^+-ATPase-inhibition was measured according to the modified method described in Biochemical Pharmacology, 1988, 37, 2231-2236.
The isolated vesicles were lyophilized, and then kept in deep-freezer until use. For enzyme assay, lyophilized vesicles were reconstituted with 3 mM MgSO4 containing 40 mM Bis-tris (pH 6.4 at 37° C.).
Enzyme reaction was performed incubating 5 mM KCl, 3 mM Na2ATP, 3 mM MgSO4 and 1.0 μg of reconstituted vesicles for 30 minutes at 37° C. in a final 60 μl of reaction mixture (40 mM Bis-tris, pH 6.4) with or without the test compound. Enzyme reaction was stopped by adding 10% sodium dodecyl sulphate (SDS). Released inorganic phosphate from ATP was detected by incubation with mixture of 1 part of 35 mM ammonium molybdate tetrahydrate in 15 mM Zinc acetate hydrate and 4 parts of 10% ascorbic acid (pH 5.0), resulting in phosphomolybdate, which has optical density at 750 nm.

T1 sequence (P19156 2-1034 limits assumed): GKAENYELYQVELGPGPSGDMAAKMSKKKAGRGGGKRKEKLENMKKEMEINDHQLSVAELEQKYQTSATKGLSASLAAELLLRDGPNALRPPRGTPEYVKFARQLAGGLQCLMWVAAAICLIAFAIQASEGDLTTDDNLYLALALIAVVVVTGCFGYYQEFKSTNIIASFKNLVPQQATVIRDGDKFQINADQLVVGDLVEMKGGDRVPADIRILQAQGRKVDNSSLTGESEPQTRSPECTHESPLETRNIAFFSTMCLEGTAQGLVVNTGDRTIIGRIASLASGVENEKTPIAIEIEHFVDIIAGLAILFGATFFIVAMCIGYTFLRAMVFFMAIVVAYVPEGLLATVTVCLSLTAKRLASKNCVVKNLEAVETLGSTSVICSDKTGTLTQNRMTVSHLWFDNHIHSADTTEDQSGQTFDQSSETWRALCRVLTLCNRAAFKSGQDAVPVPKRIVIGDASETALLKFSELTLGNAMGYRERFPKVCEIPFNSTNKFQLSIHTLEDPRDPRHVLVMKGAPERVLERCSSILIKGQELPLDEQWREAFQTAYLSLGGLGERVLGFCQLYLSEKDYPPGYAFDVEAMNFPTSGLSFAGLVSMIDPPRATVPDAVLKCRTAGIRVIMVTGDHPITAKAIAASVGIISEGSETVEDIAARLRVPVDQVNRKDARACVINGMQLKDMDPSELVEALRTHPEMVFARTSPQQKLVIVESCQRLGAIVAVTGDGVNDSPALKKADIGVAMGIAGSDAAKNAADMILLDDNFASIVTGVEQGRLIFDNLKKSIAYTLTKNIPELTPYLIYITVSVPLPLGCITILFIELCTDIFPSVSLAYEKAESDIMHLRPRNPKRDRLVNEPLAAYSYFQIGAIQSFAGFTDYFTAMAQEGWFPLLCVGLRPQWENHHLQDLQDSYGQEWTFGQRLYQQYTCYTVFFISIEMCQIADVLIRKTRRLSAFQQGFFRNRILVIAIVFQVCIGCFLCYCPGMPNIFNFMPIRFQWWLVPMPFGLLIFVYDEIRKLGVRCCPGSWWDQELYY
T1 sequence (P18434 whole entry partner): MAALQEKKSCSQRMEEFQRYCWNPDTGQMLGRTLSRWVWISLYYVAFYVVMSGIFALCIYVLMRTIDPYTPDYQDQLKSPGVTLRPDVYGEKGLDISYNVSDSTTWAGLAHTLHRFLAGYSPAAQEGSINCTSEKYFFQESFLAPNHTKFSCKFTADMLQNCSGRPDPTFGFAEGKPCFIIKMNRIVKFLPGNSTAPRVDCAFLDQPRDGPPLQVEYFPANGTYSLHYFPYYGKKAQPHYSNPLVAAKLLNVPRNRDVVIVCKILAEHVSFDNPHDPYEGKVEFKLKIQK

IC50 | Structure (SMILES)
331 nM | Cc1ccc2c(c1)OCCC2Nc1cc(C(=O)N(C)CCO)cn2c(C)c(C)nc12 (racemic) [Example 16-1, N-(2-Hydroxyethyl)-N,2,3-trimethyl-8-[(7-methyl-3,4-dihydro-2H-chromen-4-yl)amino]imidazo[1,2-a]pyridine-6-carboxamide]
180 nM | Cc1ccc2c(c1)OCCC2Nc1cc(C(=O)N(C)CCO)cn2c(C)c(C)nc12 (single isomer, unassigned) [Example 16-3, N-(2-Hydroxyethyl)-N,2,3-trimethyl-8-[(7-methyl-3,4-dihydro-2H-chromen-4-yl)amino]imidazo[1,2-a]pyridine-6-carboxamide]
250 nM | Cc1nc2c(NC3CCOc4ccc(F)cc43)cc(C(=O)N(C)CCO)cn2c1C (racemic) [Example 13-1, 8-[(6-Fluoro-3,4-dihydro-2H-chromen-4-yl)amino]-N-(2-hydroxyethyl)-N,2,3-trimethylimidazol[1,2-a]pyridine-6-carboxamide]
1100 nM | Cc1nc2c(NC3CCOc4ccc(F)cc43)cc(C(=O)N(C)CCO)cn2c1C (single isomer, unassigned) [Example 13-2, 8-[(6-Fluoro-3,4-dihydro-2H-chromen-4-yl)amino]-N-(2-hydroxyethyl)-N,2,3-trimethylimidazol[1,2-a]pyridine-6-carboxamide]
100 nM | Cc1ccc2c(c1)OCCC2Nc1cc(C(=O)N(C)CCO)cn2c(C)c(C)nc12 (single isomer, unassigned) [Example 16-2, N-(2-Hydroxyethyl)-N,2,3-trimethyl-8-[(7-methyl-3,4-dihydro-2H-chromen-4-yl)amino]imidazo[1,2-a]pyridine-6-carboxamide]
81.1 nM | Cc1nc2c(NC3CCOc4ccc(F)cc43)cc(C(=O)N(C)C)cn2c1C (single isomer, unassigned) [Example 12-3, 8-[(6-Fluoro-3,4-dihydro-2H-chromen-4-yl)amino]-N,N,2,3-tetramethylimidazo[1,2-a]pyridine-6-carboxamide]
64 nM | Cc1nc2c(NC3CCOc4ccccc43)cc(C(=O)N(C)CCO)cn2c1C (single isomer, unassigned; (+)) [Example 2-3, (+)-8-(3,4-Dihydro-2H-chromen-4-ylamino)-N-(2-hydroxyethyl)-N,2,3-trimethylimidazo[1,2-a]pyridine-6-carboxamide]
55.9 nM | Cc1nc2c(NC3CCOc4cc(F)ccc43)cc(C(=O)N(C)CCO)cn2c1C (single isomer, unassigned) [Example 7-3, 8-[(7-Fluoro-3,4-dihydro-2H-chromen-4-yl)amino]-N-(2-hydroxyethyl)-N,2,3-trimethylimidazol[1,2-a]pyridlne-6-carboxamide]

Second part, the compound before the results:

Structure (SMILES) | IC50
Cc1cccc2c1C(Nc1cc(C(=O)N(C)C)cn3c(C)c(C)nc13)CCO2 (single isomer, unassigned) [Example 17-2, N,N,2,3-Tetramethyl-8-[(5-methyl-3,4-dihydro-2H-chromen-4-yl)amino]imidazo[1,2-a]pyridine-6-carboxamide] | 43 nM
Cc1cccc2c1C(Nc1cc(C(=O)N(C)C)cn3c(C)c(C)nc13)CCO2 (racemic) [Example 17-1, N,N,2,3-Tetramethyl-8-[(5-methyl-3,4-dihydro-2H-chromen-4-yl)amino]imidazo[1,2-a]pyridine-6-carboxamide] | 64 nM
Cc1nc2c(NC3CCOc4ccccc43)cc(C(=O)N(C)CCO)cn2c1C (single isomer, unassigned; (-)) [Example 2-2, (−)-8-(3,4-Dihydro-2H-chromen-4-ylamino)-N-(2-hydroxyethyl)-N,2,3-trimethylimidazo[1.2-a]pyridine-6-carboxamide] | 81.1 nM
Cc1nc2c(NC3CCOc4cc(F)ccc43)cc(C(=O)N(C)C)cn2c1C (racemic) [Example 6-1, 8-[(7-Fluoro-3,4,dihydro-2H-chromen-4-yl)amino]-N,N,2,3-tetramethylimidazo[1,2-a]pyridine-6-carboxamide] | 13.9 nM
Cc1nc2c(NC3COCc4ccccc43)cc(C(=O)N(C)C)cn2c1C (single isomer, unassigned; (+)) [Example 3-3, (+)-8-(3,4-Dihydro-1H-isochromen-4-ylamino)-N,N,2,3-tetramethylimidazo[1,2-a]pyridine-6-carboxamide] | 67.6 nM
Cc1nc2c(NC3CCOc4cc(F)cc(F)c43)cc(C(=O)N(C)C)cn2c1C (racemic) [Example 8-1, 8-[(5,7-Difluoro-3,4-dihydro-2H-chromen-4-yl)amino]-N,N,2,3-tetramethylimidazo[1,2-a]pyridine-6-carboxamide] | 20 nM
Cc1nc2c(NC3CCOc4c(F)cccc43)cc(C(=O)N(C)CCO)cn2c1C (single isomer, unassigned) [Example 15-3, 8-[(8-Fluoro-3,4-dihydro-2H-chromen-4-yl)amino]-N-(2-hydroxyethyl)-N,2,3-trimethylimidazol[1,2-a]pyridine-6-carboxamide] | 370 nM
Cc1nc2c(NC3CCOc4cccc(Cl)c43)cc(C(=O)N(C)C)cn2c1C (single isomer, unassigned) [Example 18-3, 8-[(5-Chloro-3,4-dihydro-2H-chromen-4-yl)amino]-N,N,2,3-tetramethylimidazo[1,2-a]pyridine-6-carboxamide] | 240 nM
Cc1nc2c(NC3COCc4ccccc43)cc(C(=O)N(C)CCO)cn2c1C (single isomer, unassigned; (-)) [Example 4-2, (−)-8-(3,4-Dihydro-1H-isochromen-4-ylamino)-N-(2-hydroxyethyl)-N,2,3-trimethylimidazo[1,2-a]pyridine-6-carboxamide] | 273 nM
Cc1nc2c(NC3CCOc4ccccc43)cc(C(=O)N(C)C)cn2c1C (racemic) [Example 1-1, 8-(3,4-Dihydro-2H-chromen-4-ylamino)-N,N,2,3-tetramethylimidazo[1,2-a]pyridine-6-carboxamide] | 85 nM
Cc1nc2c(NC3CCOc4cccc(Cl)c43)cc(C(=O)N(C)C)cn2c1C (racemic) [Example 18-1, 8-[(5-Chloro-3,4-dihydro-2H-chromen-4-yl)amino]-N,N,2,3-tetramethylimidazo[1,2-a]pyridine-6-carboxamide] | 350 nM
Cc1nc2c(NC3CCOc4ccccc43)cc(C(=O)N(C)C)cn2c1C (single isomer, unassigned; (+)) [Example 1-3, (+)-8-(3,4-Dihydro-2H-chromen-4-ylamino)-N,N,2,3-tetramethylimidazo[1,2-a]pyridine-6-carboxamide] | 27.8 nM
Cc1nc2c(NC3COCc4ccccc43)cc(C(=O)N(C)CCO)cn2c1C (racemic) [Example 4-1, 8-(3,4-Dihydro-1H-isochromen-4-ylamino)-N-(2-hydroxyethyl)-N,2,3-trimethylimidazo[1,2-a]pyridine-6-carboxamide] | 87.1 nM
Cc1nc2c(NC3CCOc4cccc(F)c43)cc(C(=O)N(C)C)cn2c1C (racemic) [Example 10-1, 8-[(5-Fluoro-3,4-dihydro-2H-chromen-4-yl)amino]-N,N,2,3-tetramethylimidazo[1,2-a]pyridine-6-carboxamide] | 75.1 nM
Cc1nc2c(NC3COCc4ccccc43)cc(C(=O)N(C)C)cn2c1C (single isomer, unassigned; (-)) [Example 3-2, (−)-8-(3,4-Dihydro-1H-isochromen-4-ylamino)-N,N,2,3-tetramethylimidazo[1,2-a]pyridine-6-carboxamide] | 125 nM
